From patent US10780101B2, “Amide derivatives of squalamine for the treatment of infections” (VIRBAC, priority 2016, dated 2020)
≈ marks a conversion by molar mass, not a printed value.

Key:
[1] = system: P. aeruginosa Human ATCC 27853; assay: MIC determination, P. aeruginosa human ATCC 27853; type: cell-based; conditions: Pseudomonas aeruginosa, ATCC27853; Gram-negative; Mueller-Hinton medium, 24 h at 37° C.
Description: (§1) A negative control (2 mL of sterile culture medium)
(§2) A positive control (1940 μL of culture medium+40 μL of DMSO+20 μL of the bacterial suspension) from a thawed biological strain (the biological strains are stored at −80° C. in glycerol).
(§3) The tubes were incubated at 37° C. for 24 hours at 100 rpm.
(§4) The microorganisms were handled under a type L2 laboratory fume cupboard and, before any handling, a UV cycle was programmed and only sterile material was used. […] The chemical compounds to be tested were prepared in a DMSO/methanol mixture (50/50) at a concentration of 5 mg/mL.
(§5) After 24 hours of incubation, a measurement of the optical density was taken using a spectrophotometer at 600 nm, collecting 100 μL of the bacterial suspension diluted in 900 μL of the sterile culture medium. This test required the use of a 96-well plate and the required volume of the microbial suspension to be seeded was calculated for an OD corresponding to a value equal to 0.01 in each well. In this plate, the first line corresponded to the negative control (195 μL of sterile culture medium in each well), the second line corresponded to the positive control (seeded culture medium supplemented with 2% of DMSO), and the third line was loaded twice with bacterial suspension; 8 μL of test product were placed in each well. Thereafter, a 0.5 cascade dilution was performed from this line.
(§6) The first column served as inhibition control. A sterile filter was then placed on the microplate, allowing the passage of gases but not of contaminants. The microplate was incubated at 37° C. under a humid atmosphere for 24 hours.
(§7) NB: The medium used is Mueller-Hinton (MH) medium for bacteria. All the tests were performed in duplicate.
(§8) After incubation, the filter was replaced with a transparent film, and an OD reading was then taken in an iEMS plate spectrophotometer at 620 nm. Calculation of the minimum inhibitory concentration (MIC) was performed.

E. coli Human ATCC 28922 = assay: MIC determination, E. coli human ATCC 28922; type: cell-based; conditions: Escherichia coli, ATCC28922; Gram-negative; Mueller-Hinton medium, 24 h at 37° C.
Description: as §1, §2, §3, §4, §5, §6, §7, §8

[2] = system: P. aeruginosa Animal (1051575); assay: MIC determination, P. aeruginosa animal (1051575); type: cell-based; conditions: Pseudomonas aeruginosa; Gram-negative; Mueller-Hinton medium, 24 h at 37° C.
Description: as §1, §2, §3, §4, §5, §6, §7, §8

[3] = system: S. intermedius Animal (1051997); assay: MIC determination, S. intermedius animal (1051997); type: cell-based; conditions: Staphylococcus intermedius; Gram-positive; Mueller-Hinton medium, 24 h at 37° C.
Description: as §1, §2, §3, §4, §5, §6, §7, §8

CHO-K1 cells = assay: WST1 cytotoxicity test on CHO-K1 cells; type: cell-based, Chinese hamster; conditions: Cricetulus griseus, CHO-K1, 24 h, read-out: IC50 (μg/mL) CHO
Description: Test WST1 was used to measure the cytotoxic activity of the products. This is a colorimetric test which makes it possible to measure the viability and the degree of cell proliferation. It is based on cleavage of the colorless tetrazolium salts WST-1 (4-[3-(4-iodophenyl)-2-(4-nitrophenyl)-2H-5-tetrazolio]-1,3-benzene disulfonate) with mitochondrial dehydrogenases to the yellow-colored formazan derivative, which may be quantified by spectrophotometry at 420-480 nm.
The WST1 test was performed on Chinese hamster ovary cells. The CHO-K1 cells (ATCC, USA) are kept in culture in McCoy's 5A medium supplemented with 10% fetal calf serum, 2 mM of L-glutamine and a mixture of penicillin-streptomycin (100 U/ml: 10 μg/ml). The culture is incubated at 37° C. under an atmosphere enriched in CO2 (5%), and subcultured every two days.
The cells are transferred into 96-well plates (25000 cells/mL) in whole McCoy's 5A medium, and maintained for 24 hours at 37° C. under a humid atmosphere enriched in CO2 (5%). Increasing concentrations of test products are added to the wells in double tests and 8 growth controls containing the cells in the medium alone are included in each series of tests. After 24 hours at 37° C. (5% CO2), the culture medium is removed, the cells are rinsed in phosphate buffer (PBS) and 50 μL of PBS containing 10% of reagent WST1 are added to each well. After 20 minutes of incubation at 37° C., the results are read by spectrophotometry at 450 nm.
The results are expressed in dose-response relationships, modeled by nonlinear regression analysis using the TableCurve software. The 50% inhibitory concentration (IC50) represents the concentration of product that is capable of reducing the cell viability by 50%.

P. aeruginosa (1051575) = assay: Potentiation of doxycycline activity (combination MIC); type: cell-based, Pseudomonas aeruginosa; conditions: in presence of doxycycline 2 μg/mL; 24 hours at 37° C.
E. coli Animal (1956) = assay: MIC determination, E. coli animal (1956); type: cell-based; conditions: Escherichia coli; Gram-negative; Mueller-Hinton medium, 24 h at 37° C.
Description: as §1, §2, §3, §4, §5, §6, §7, §8

[4] = system: E. faecalis Human ATCC 29212; assay: MIC determination, E. faecalis human ATCC 29212; type: cell-based; conditions: Enterococcus faecalis, ATCC29212; Gram-positive; Mueller-Hinton medium, 24 h at 37° C.
Description: as §1, §2, §3, §4, §5, §6, §7, §8

[5] = system: S. aureus Human ATCC 25923; assay: MIC determination, S. aureus human ATCC 25923; type: cell-based; conditions: Staphylococcus aureus, ATCC25923; Gram-positive; Mueller-Hinton medium, 24 h at 37° C.
Description: as §1, §2, §3, §4, §5, §6, §7, §8

S. aureus Animal (340) = assay: MIC determination, S. aureus animal (340); type: cell-based; conditions: Staphylococcus aureus; Gram-positive; Mueller-Hinton medium, 24 h at 37° C.
Description: as §1, §2, §3, §4, §5, §6, §7, §8

## CC(C)NC(=O)CC[C@@H](C)[C@H]1CCC2C3CCC4C[C@@H](NCCCNCCCCNCCCN)CC[C@]4(C)C3C[C@H](O)[C@@]21C (stereo partly drawn) [(30), 3β-spermino-N-isopropyldeoxycholamide]
[1]
  MIC: 4 µg/mL (≈ 6.47 µM)
E. coli Human ATCC 28922
  MIC: 15 µg/mL (≈ 24.3 µM)
[2]
  MIC: 4 µg/mL (≈ 6.47 µM)
[3]
  MIC: 1 µg/mL (≈ 1.62 µM)
CHO-K1 cells
  IC50: 30 µg/mL (≈ 48.5 µM)
P. aeruginosa (1051575)
  MIC - P. aeruginosa (1051575): content of compound of formula (I) to restore the doxycycline activity (at 2 μg/mL): 1 µg/mL
E. coli Animal (1956)
  MIC: 30 µg/mL (≈ 48.5 µM)
[4]
  MIC: 15 µg/mL (≈ 24.3 µM)
[5]
  MIC: 8 µg/mL (≈ 12.9 µM)
S. aureus Animal (340)
  MIC: 8 µg/mL (≈ 12.9 µM)

## C[C@H](CCC(=O)NC1CCCCC1)[C@H]1CCC2C3C(CC[C@@]21C)[C@@]1(C)CC[C@H](NCCCNCCCN)CC1C[C@H]3O (stereo partly drawn) [(38), 3β-norspermidino-N-cyclohexylchenodeoxycholamide]
[1]
  MIC: 30 µg/mL (≈ 51.1 µM)
E. coli Human ATCC 28922
  MIC: 30 µg/mL (≈ 51.1 µM)
[2]
  MIC: 30 µg/mL (≈ 51.1 µM)
[3]
  MIC: 2 µg/mL (≈ 3.41 µM)
CHO-K1 cells
  IC50: 12 µg/mL (≈ 20.4 µM)
P. aeruginosa (1051575)
  MIC - P. aeruginosa (1051575): content of compound of formula (I) to restore the doxycycline activity (at 2 μg/mL): 2 µg/mL
E. coli Animal (1956)
  MIC: 15 µg/mL (≈ 25.6 µM)
[4]
  MIC: 4 µg/mL (≈ 6.81 µM)
[5]
  MIC: 4 µg/mL (≈ 6.81 µM)
S. aureus Animal (340)
  MIC: 4 µg/mL (≈ 6.81 µM)

## CC(C)NC(=O)CC[C@@H](C)[C@H]1CCC2C3C(CC[C@@]21C)[C@@]1(C)CC[C@H](NCCCN(CCCN)CCCN)CC1C[C@@H]3O (stereo partly drawn) [(48), 3β-(tris(3-aminopropyl)amine)-N-isopropylursodeoxycholamide]
[1]
  MIC: 120 µg/mL (≈ 199 µM)
E. coli Human ATCC 28922
  MIC: > 120 µg/mL
[2]
  MIC: 120 µg/mL (≈ 199 µM)
[3]
  MIC: 8 µg/mL (≈ 13.2 µM)
CHO-K1 cells
  IC50: 42 µg/mL (≈ 69.5 µM)
P. aeruginosa (1051575)
  MIC - P. aeruginosa (1051575): content of compound of formula (I) to restore the doxycycline activity (at 2 μg/mL): 4 µg/mL
E. coli Animal (1956)
  MIC: 120 µg/mL (≈ 199 µM)
[4]
  MIC: 60 µg/mL (≈ 99.3 µM)
[5]
  MIC: 30 µg/mL (≈ 49.7 µM)
S. aureus Animal (340)
  MIC: 15 µg/mL (≈ 24.8 µM)

## CCN(CC)C(=O)CC[C@@H](C)[C@H]1CCC2C3C(CC[C@@]21C)[C@@]1(C)CC[C@H](NCCCNCCNCCCN)CC1C[C@H]3O (stereo partly drawn) [(53), 3β-(bis(3-aminopropyl)ethylenediamine)-N,N-diethylchenodeoxycholamide]
[1]
  MIC: 30 µg/mL (≈ 49.7 µM)
E. coli Human ATCC 28922
  MIC: 60 µg/mL (≈ 99.3 µM)
[2]
  MIC: 15 µg/mL (≈ 24.8 µM)
[3]
  MIC: 2 µg/mL (≈ 3.31 µM)
CHO-K1 cells
  IC50: 30 µg/mL (≈ 49.7 µM)
P. aeruginosa (1051575)
  MIC - P. aeruginosa (1051575): content of compound of formula (I) to restore the doxycycline activity (at 2 μg/mL): 2 µg/mL
E. coli Animal (1956)
  MIC: 15 µg/mL (≈ 24.8 µM)
[4]
  MIC: 2 µg/mL (≈ 3.31 µM)
[5]
  MIC: 4 µg/mL (≈ 6.62 µM)
S. aureus Animal (340)
  MIC: 4 µg/mL (≈ 6.62 µM)

## CC(C)N(C(=O)CC[C@@H](C)[C@H]1CCC2C3C(CC[C@@]21C)[C@@]1(C)CC[C@H](NCCCNCCNCCCN)CC1C[C@H]3O)C(C)C (stereo partly drawn) [(54), 3β-(bis(3-aminopropyl)ethylenediamine)-N,N-diisopropylchenodeoxycholamide]
[1]
  MIC: 32 µg/mL (≈ 50.6 µM)
E. coli Human ATCC 28922
  MIC: 125 µg/mL (≈ 198 µM)
[2]
  MIC: 16 µg/mL (≈ 25.3 µM)
[3]
  MIC: 2 µg/mL (≈ 3.16 µM)
CHO-K1 cells
  IC50: 22 µg/mL (≈ 34.8 µM)
P. aeruginosa (1051575)
  MIC - P. aeruginosa (1051575): content of compound of formula (I) to restore the doxycycline activity (at 2 μg/mL): 2 µg/mL
E. coli Animal (1956)
  MIC: 8 µg/mL (≈ 12.7 µM)
[4]
  MIC: 2 µg/mL (≈ 3.16 µM)
[5]
  MIC: 4 µg/mL (≈ 6.33 µM)
S. aureus Animal (340)
  MIC: 4 µg/mL (≈ 6.33 µM)

## CC(C)NC(=O)CC[C@@H](C)[C@H]1CCC2C3C(C[C@H](O)[C@@]21C)[C@@]1(C)CC[C@H](NCCCNCCCCNCCCN)CC1C[C@H]3O (stereo partly drawn) [Compound (31), 3β-spermino-N-isopropylcholamide]
[1]
  MIC: 64 µg/mL (≈ 101 µM)
E. coli Human ATCC 28922
  MIC: 16 µg/mL (≈ 25.2 µM)
[2]
  MIC: 32 µg/mL (≈ 50.5 µM)
[3]
  MIC: 4 µg/mL (≈ 6.31 µM)
CHO-K1 cells
  IC50: 40 µg/mL (≈ 63.1 µM)
P. aeruginosa (1051575)
  MIC - P. aeruginosa (1051575): content of compound of formula (I) to restore the doxycycline activity (at 2 μg/mL): 1 µg/mL
E. coli Animal (1956)
  MIC: 32 µg/mL (≈ 50.5 µM)
[4]
  MIC: 8 µg/mL (≈ 12.6 µM)
[5]
  MIC: 4 µg/mL (≈ 6.31 µM)
S. aureus Animal (340)
  MIC: 8 µg/mL (≈ 12.6 µM)
